Common to all, as to type: cell-based
One assay concerns the target T1, SSTR5 (Homo sapiens, UniProt P35346).
T1 construct: expressed in transfected cells
As to the kind of experiment: cAMP functional agonist assay, CHO cells expressing SSTR5. The following applies: CHO cells stably expressing SSTR5, cAMP. The method in brief:
(§1)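 CHO cells stably expressing a single somatostatin receptor subtype, grown to 85–100% confluence in F12-Ham's with 10% donor calf serum and hygromycin. Agonism assessed as a decrease in intracellular cAMP via Gi coupling.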

Another assay has as its target SSTR3 (UniProt P32745). As to the kind of experiment: cAMP functional agonist assay, CHO cells expressing SSTR3. As to conditions: CHO cells stably expressing SSTR3, cAMP. The method, boiled down:
as §1

Assay [1] concerns the target T2, human somatostatin receptor subtype 2a (Homo sapiens, UniProt P30874).
T2 construct: expressed in transfected cells
As to the kind of experiment: cAMP assay for SSTR2a agonists (HTRF cAMP kit, NKH-477 stimulated). The following applies: CHO cells stably expressing human SSTR2a, 1.6 μM NKH-477. On the procedure:
Chinese hamster ovary (CHO) cells stably expressing one of the six human or rodent somatostatin receptor subtypes are grown to 85-100% confluence on standard tissue culture dishes in F12-Ham's growth media (Hyclone) with following additives: 10% donor calf serum (Hyclone), 200 U/mL penicillin (Hyclone), 200 μg/mL streptomycin (Hyclone), 20 mM HEPES (Hyclone), 200 μg/mL hygromycin Hyclone.
General overview: All SSTR subtypes are Gi coupled G-protein coupled receptors (GPCRs) that lead to decreases in intracellular cyclic AMP (cAMP) when activated by an agonist. Therefore, measurement of intracellular cAMP levels can be used to assess whether compounds of the invention are agonists of SSTR subtypes (John Kelly, Troy Stevens, W. Joseph Thompson, and Roland Seifert, Current Protocols in Pharmacology, 2005, 2.2.1-2.2). One example of an intracellular cAMP assay is described below.
Four days prior to the assay, 5000 Chinese hamster ovary (CHO) cells stably expressing the human somatostatin receptor subtype 2a are plated in each well of a 96-well tissue culture plate (Nest Biotech Cell, flat bottom with low evaporation tissue culture treated; Polystyrene; Non-Pyrogenic) in F12-Ham's media (100 μL/well) supplemented with 200 μg/mL of hygromycin. Incubate at 37 C, 5% CO2, 95% humidity for four days. The cells should reach full confluence. On the day of the assay, various dilutions of the compounds of the invention are prepared in assay buffer (HRTF cAMP kit, Cisbio) in the presence of 1.6 μM NKH-477 (a water-soluble forskolin derivative) and 50 μL of the dilutions are added to the cultured cells and incubated for 20 minutes at 37° C. […] 50 μL of lysis buffer (HRTF cAMP kit, Cisbio) is added to each well and incubated at room temperature for 30 minutes, after which 150 μL assay buffer is added to each well. In a 384-well plate (Grenier, 784-080), 10 μL of assay mixture is added to 10 μL of developing mixture, containing cAMP detection and visualization antibodies are added and the assay is allowed incubate for 1-24 hours at room temperature. The intracellular cAMP concentrations are then measured using a commercially available detection kit (for example, the cAMP HTRF kit, Cisbio). The measured intracellular cAMP concentrations are plotted vs. the concentration of the compounds of the invention and the EC50 of the compounds are calculated using standard methods.

The target in a further assay is T3, SSTR1 (Homo sapiens, UniProt P30872).
T3 construct: expressed in transfected cells
T3 sequence (P30872 whole entry): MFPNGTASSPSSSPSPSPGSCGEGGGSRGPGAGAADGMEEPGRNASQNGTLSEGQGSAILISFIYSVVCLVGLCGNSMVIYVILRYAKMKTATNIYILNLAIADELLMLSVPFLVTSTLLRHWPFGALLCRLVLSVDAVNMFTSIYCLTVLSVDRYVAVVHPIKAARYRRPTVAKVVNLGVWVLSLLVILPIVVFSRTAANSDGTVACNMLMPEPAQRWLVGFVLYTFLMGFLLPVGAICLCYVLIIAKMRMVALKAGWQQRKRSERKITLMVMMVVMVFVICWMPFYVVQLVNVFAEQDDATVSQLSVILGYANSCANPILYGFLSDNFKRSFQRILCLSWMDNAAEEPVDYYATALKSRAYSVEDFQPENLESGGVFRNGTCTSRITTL
Briefly: cAMP functional agonist assay, CHO cells expressing SSTR1. As to conditions: CHO cells stably expressing SSTR1, cAMP; read-out: SSTR1 EC50. The method, boiled down: (§2)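 CHO cells stably expressing the human or rodent somatostatin receptor subtype. Agonism measured as decrease in intracellular cAMP via Gi coupling.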

In a further assay the target is T4, SSTR4 (Homo sapiens, UniProt P31391).
T4 construct: expressed in transfected cells
T4 sequence (P31391 whole entry): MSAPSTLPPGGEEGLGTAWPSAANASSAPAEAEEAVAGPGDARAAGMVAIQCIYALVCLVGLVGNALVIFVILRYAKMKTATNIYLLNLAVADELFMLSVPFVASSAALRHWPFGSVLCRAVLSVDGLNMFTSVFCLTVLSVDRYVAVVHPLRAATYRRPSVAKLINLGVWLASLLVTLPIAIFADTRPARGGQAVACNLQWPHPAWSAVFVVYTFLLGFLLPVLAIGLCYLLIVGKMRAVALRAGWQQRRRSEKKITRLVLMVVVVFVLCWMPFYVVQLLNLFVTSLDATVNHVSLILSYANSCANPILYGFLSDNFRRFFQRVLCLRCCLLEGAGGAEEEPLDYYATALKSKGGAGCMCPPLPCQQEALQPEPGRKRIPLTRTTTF
As to the kind of experiment: cAMP functional agonist assay, CHO cells expressing SSTR4. The following applies: CHO cells stably expressing SSTR4, cAMP; read-out: SSTR4 EC50. The method, boiled down:
as §2

Where only a bound is given, the exact number is not on record here.

The term EC50 denotes the concentration at which the effect is half-maximal.

T2 sequence (P30874 whole entry): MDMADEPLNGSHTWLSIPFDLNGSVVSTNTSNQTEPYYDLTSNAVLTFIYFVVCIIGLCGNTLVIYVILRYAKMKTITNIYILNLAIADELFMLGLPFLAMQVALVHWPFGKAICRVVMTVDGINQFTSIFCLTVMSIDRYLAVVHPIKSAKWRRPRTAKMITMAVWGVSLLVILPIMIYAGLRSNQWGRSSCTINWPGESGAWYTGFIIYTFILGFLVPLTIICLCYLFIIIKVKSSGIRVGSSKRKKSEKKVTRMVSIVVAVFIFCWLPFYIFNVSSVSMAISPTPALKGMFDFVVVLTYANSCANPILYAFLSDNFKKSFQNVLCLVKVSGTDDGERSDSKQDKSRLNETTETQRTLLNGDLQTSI
SSTR3, sequence (P32745 whole entry): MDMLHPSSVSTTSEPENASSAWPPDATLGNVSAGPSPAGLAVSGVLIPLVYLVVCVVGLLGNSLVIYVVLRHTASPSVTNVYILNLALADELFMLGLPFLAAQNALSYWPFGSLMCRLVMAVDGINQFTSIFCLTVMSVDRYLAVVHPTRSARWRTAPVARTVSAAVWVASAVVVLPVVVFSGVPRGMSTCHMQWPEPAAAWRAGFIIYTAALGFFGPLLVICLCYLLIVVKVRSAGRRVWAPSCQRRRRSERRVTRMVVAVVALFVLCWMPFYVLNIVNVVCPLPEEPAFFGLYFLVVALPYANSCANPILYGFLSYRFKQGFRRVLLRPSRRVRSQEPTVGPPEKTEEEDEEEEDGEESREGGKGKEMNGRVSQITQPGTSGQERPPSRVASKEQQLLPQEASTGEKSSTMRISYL
T1 sequence (P35346 whole entry): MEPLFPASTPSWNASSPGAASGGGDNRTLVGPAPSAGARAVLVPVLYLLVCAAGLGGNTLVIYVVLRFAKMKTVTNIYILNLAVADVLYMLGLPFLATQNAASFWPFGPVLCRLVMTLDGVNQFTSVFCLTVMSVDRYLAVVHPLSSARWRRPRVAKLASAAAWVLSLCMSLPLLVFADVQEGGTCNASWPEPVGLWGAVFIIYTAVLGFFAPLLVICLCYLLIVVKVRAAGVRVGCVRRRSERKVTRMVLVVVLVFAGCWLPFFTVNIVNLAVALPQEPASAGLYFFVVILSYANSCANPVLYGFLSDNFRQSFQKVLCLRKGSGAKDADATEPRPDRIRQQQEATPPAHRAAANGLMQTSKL

Consider `Cc1cc(C)cc(-c2cnc3ncn(-c4cc(O)cc(F)c4)c(=O)c3c2CN(C)C[C@@H]2CCCCN2)c1` [Compound A-27, 6-(3,5-dimethylphenyl)-3-(3-fluoro-5-hydroxyphenyl)-5-({methyl[(2S)-piperidin-2-ylmethyl]amino}methyl)-3H,4H-pyrido[2,3-d]pyrimidin-4-one], for which the EC50 at SSTR5 is 100 to 10000 nM; on SSTR3 it was less than 100 nM; in assay [1], less than 100 nM; at SSTR1 it was 100 to 10000 nM; at SSTR4, less than 100 nM.

`Cc1cc(Cl)cc(-c2cnc3ncn(-c4cc(O)cc(F)c4)c(=O)c3c2CN(C)C[C@@H]2CCCCN2)c1` [Compound A-28, 6-(3-chloro-5-methylphenyl)-3-(3-fluoro-5-hydroxyphenyl)-5-({methyl[(2S)-piperidin-2-ylmethyl]amino}methyl)-3H,4H-pyrido[2,3-d]pyrimidin-4-one]: the EC50 on SSTR5 is 100 to 10000 nM; at SSTR3, less than 100 nM; in assay [1] it was less than 100 nM; at SSTR1 it was 100 to 10000 nM; on SSTR4, less than 100 nM.

As for `CN(Cc1c(-c2cccc(CCO)c2)cnc2ncn(-c3cccc(O)c3)c(=O)c12)C[C@@H]1CCCN1` [Compound A-32, 6-[3-(2-hydroxyethyl)phenyl]-3-(3-hydroxyphenyl)-5-({methyl[(2S)-pyrrolidin-2-ylmethyl]amino}methyl)-3H,4H-pyrido[2,3-d]pyrimidin-4-one], the EC50 on SSTR5 is greater than 10000 nM; on SSTR3 it was 100 to 10000 nM; in assay [1], less than 100 nM; at SSTR1, greater than 10000 nM; on SSTR4, less than 100 nM.

Consider `CN(Cc1c(-c2cccc(CO)c2)cnc2ncn(-c3cccc(O)c3)c(=O)c12)C[C@@H]1CCCN1` [Compound A-34, 6-[3-(hydroxymethyl)phenyl]-3-(3-hydroxyphenyl)-5-({methyl[(2S)-pyrrolidin-2-ylmethyl]amino}methyl)-3H,4H-pyrido[2,3-d]pyrimidin-4-one], for which the EC50 was greater than 10000 nM at SSTR5; 100 to 10000 nM on SSTR3; less than 100 nM in assay [1]; greater than 10000 nM on SSTR1; less than 100 nM on SSTR4.

As to `Cc1cc(Cl)cc(-c2cnc3ncn(-c4cc(O)cc(C(F)(F)F)c4)c(=O)c3c2CN(C)C[C@@H]2CCCN2)c1` [Compound A-48, 6-(3-chloro-5-methylphenyl)-3-[3-hydroxy-5-(trifluoromethyl)phenyl]-5-({methyl[(2S)-pyrrolidin-2-ylmethyl]amino}methyl)-3H,4H-pyrido[2,3-d]pyrimidin-4-one], the EC50 on SSTR5 was greater than 10000 nM; at SSTR3, less than 100 nM; in assay [1] it was less than 100 nM; on SSTR1, 100 to 10000 nM; on SSTR4, less than 100 nM.

For the compound `Cc1cc(Cl)cc(-c2cnc3ncn(-c4cc(O)cc(Cl)c4)c(=O)c3c2CN(C)C[C@@H]2CCCN2)c1` [Compound A-49, 3-(3-chloro-5-hydroxyphenyl)-6-(3-chloro-5-methylphenyl)-5-({methyl[(2S)-pyrrolidin-2-ylmethyl]amino}methyl)-3H,4H-pyrido[2,3-d]pyrimidin-4-one], the EC50 at SSTR5 was greater than 10000 nM; on SSTR3, less than 100 nM; in assay [1], less than 100 nM; on SSTR1, 100 to 10000 nM; at SSTR4, less than 100 nM.

Regarding `Cc1cc(Cl)cc(-c2cnc3ncn(-c4cc(F)cc(C(N)=O)c4)c(=O)c3c2CN(C)C[C@@H]2CCCN2)c1` [Compound A-50, 3-[6-(3-chloro-5-methylphenyl)-5-({methyl[(2S)-pyrrolidin-2-ylmethyl]amino}methyl)-4-oxo-3H,4H-pyrido[2,3-d]pyrimidin-3-yl]-5-fluorobenzamide], the EC50 was greater than 10000 nM on SSTR5; 100 to 10000 nM at SSTR3; less than 100 nM in assay [1]; 100 to 10000 nM at SSTR1; less than 100 nM on SSTR4.

As for `Cc1cc(Cl)cc(-c2cnc3ncn(-c4cc(F)cc(C(N)=O)c4)c(=O)c3c2CN(C)C[C@H]2CCCN2)c1` [Compound A-51, 3-[6-(3-chloro-5-methylphenyl)-5-({methyl[(2R)-pyrrolidin-2-ylmethyl]amino}methyl)-4-oxo-3H,4H-pyrido[2,3-d]pyrimidin-3-yl]-5-fluorobenzamide], the EC50 at SSTR5 is greater than 10000 nM; at SSTR3, less than 100 nM; in assay [1], less than 100 nM; at SSTR1, greater than 10000 nM; at SSTR4, less than 100 nM.

For the compound `Cc1cc(Cl)cc(-c2cnc3ncn(-c4cc(O)ccc4F)c(=O)c3c2CN(C)C[C@@H]2CCCN2)c1` [Compound A-54, 6-(3-chloro-5-methylphenyl)-3-(2-fluoro-5-hydroxyphenyl)-5-({methyl[(2S)-pyrrolidin-2-ylmethyl]amino}methyl)-3H,4H-pyrido[2,3-d]pyrimidin-4-one], the EC50 on SSTR5 is greater than 10000 nM; on SSTR3, less than 100 nM; in assay [1] it was less than 100 nM; at SSTR1, 100 to 10000 nM; on SSTR4 it was less than 100 nM.

Consider `Cc1cc(C)cc(-c2cnc3nc(C)n(-c4cc(O)cc(F)c4)c(=O)c3c2CN(C)C[C@@H]2CCCN2)c1` [Compound A-55, 6-(3,5-dimethylphenyl)-3-(3-fluoro-5-hydroxyphenyl)-2-methyl-5-({methyl[(2S)-pyrrolidin-2-ylmethyl]amino}methyl)-3H,4H-pyrido[2,3-d]pyrimidin-4-one], for which the EC50 is 100 to 10000 nM on SSTR5; 100 to 10000 nM on SSTR3; less than 100 nM in assay [1]; greater than 10000 nM on SSTR1; less than 100 nM on SSTR4.

Consider `CCc1nc2ncc(-c3cc(C)cc(Cl)c3)c(CN(C)C[C@@H]3CCCN3)c2c(=O)n1-c1cccc(O)c1` [Compound A-57, 6-(3-chloro-5-methylphenyl)-2-ethyl-3-(3-hydroxyphenyl)-5-({methyl[(2S)-pyrrolidin-2-ylmethyl]amino}methyl)-3H,4H-pyrido[2,3-d]pyrimidin-4-one], for which the EC50 at SSTR5 is 100 to 10000 nM; at SSTR3 it was less than 100 nM; in assay [1], less than 100 nM; on SSTR1 it was 100 to 10000 nM; on SSTR4, less than 100 nM.

Consider `Cc1cc(Cl)cc(-c2cnc3nc(C(C)C)n(-c4cccc(O)c4)c(=O)c3c2CN(C)C[C@@H]2CCCN2)c1` [Compound A-58, 6-(3-chloro-5-methylphenyl)-3-(3-hydroxyphenyl)-5-({methyl[(2S)-pyrrolidin-2-ylmethyl]amino}methyl)-2-(propan-2-yl)-3H,4H-pyrido[2,3-d]pyrimidin-4-one], for which the EC50 on SSTR5 was 100 to 10000 nM; on SSTR3, 100 to 10000 nM; in assay [1], less than 100 nM; at SSTR1, 100 to 10000 nM; at SSTR4, less than 100 nM.

For the compound `Cc1cc(Cl)cc(-c2cnc3nc(C)n(-c4cc(O)cc(F)c4)c(=O)c3c2CN(C)C[C@@H]2CCCN2)c1` [Compound A-59, 6-(3-chloro-5-methylphenyl)-3-(3-fluoro-5-hydroxyphenyl)-2-methyl-5-({methyl[(2S)-pyrrolidin-2-ylmethyl]amino}methyl)-3H,4H-pyrido[2,3-d]pyrimidin-4-one], the concentration giving a half-maximal response (EC50) is 100 to 10000 nM at SSTR5; less than 100 nM at SSTR3; less than 100 nM in assay [1]; greater than 10000 nM at SSTR1; less than 100 nM on SSTR4.

For `CC[C@H](N)CN(C)Cc1c(-c2cc(C)cc(C)c2)cnc2ncn(-c3cc(O)cc(F)c3)c(=O)c12` [Compound A-62, 5-({[(2S)-2-aminobutyl](methyl)amino}methyl)-6-(3,5-dimethylphenyl)-3-(3-fluoro-5-hydroxyphenyl)-3H,4H-pyrido[2,3-d]pyrimidin-4-one], the concentration giving a half-maximal response (EC50) on SSTR5 was 100 to 10000 nM; on SSTR3, less than 100 nM; in assay [1], less than 100 nM; at SSTR1, 100 to 10000 nM; on SSTR4, less than 100 nM.

The values above are taken from patent US9957267B2, “Somatostatin modulators and uses thereof” (Crinetics Pharmaceuticals, Inc., priority 2015, dated 2018).
